Test results published in US20120014956A1, “METHODS AND COMPOSITIONS FOR PREDICTING RESPONSIVENESS TO TREATMENT WITH TNF-ALPHA INHIBITOR” (priority 2010, published 2012).

Test system: patients with early RA
Assay: OPTIMA genetic substudy: ACR20/50/70 response at Week 26
Assay type: in vivo, human
Details: for ACR50, % / ACR50, n/N: 26 weeks; for ACR20 Response Rates at Week 26 (title; column head ACR70), % subjects / ACR20 Response Rates at Week 26 (title; column head ACR70), n/N subjects: Table 6a; for ACR20 Response Rates at Week 26 (title; column head ACR70), % subjects / ACR20 Response Rates at Week 26 (title; column head ACR70), n/N subjects / ACR50 response rate, % subjects / ACR50 response, n/N subjects / ACR70 response rate, % subjects / ACR70 response, n/N subjects / ACR20 response rate, % subjects / ACR20 response, n/N subjects: Week 26
Excerpt: The objective of the study was to prospectively analyze the association of 3 genetic risk factors (HLA-DRB1 shared epitope (SE), FcγRIIb, and IL-4R) for severe RA with clinical disease activity after 26 weeks of combination therapy with adalimumab (ADA) and methotrexate (MTX) or MTX monotherapy in a substudy of OPTIMA (A Multicentre, Randomized, Double Period, Double-Blind Study to Determine the Optimal Protocol for Treatment Initiation With Methotrexate and Adalimumab Combination Therapy in Patients With Early Rheumatoid Arthritis).
OPTIMA is an ongoing 78-week study with 26- and 52-week periods. Eligible patients had RA<1 year (1987-revised ACR classification), 28-joint Disease Activity Score (DAS28)>3.2, ≧6 swollen joints […], and ≧8 tender joints (SSJC66≧8). Patients had elevated erythrocyte sedimentation rate (ESR)≧28 mm/h or C-reactive protein (CRP)≧1.5 mg/dL and ≧1 of the following: >1 erosion, rheumatoid-factor positive (RF+), or anti-cyclic citrullinated peptide antibody positive (anti-CCP+). Exclusion criteria included prior exposure to systemic anti-TNF therapies, treatment with MTX or >2 disease-modifying anti-rheumatic drugs (DMARDs), other acute inflammatory joint diseases, or steroidal or surgical treatment within 4 weeks or 2 months, respectively.
In Period 2, those combination therapy responders, e.g., meeting DAS28 low disease activity (LDA) criteria (DAS28<3.2), were re-randomized 1:1 to remain on ADA+MTX or to “step down” to PBO+MTX for Weeks 26-78. In the initial PBO+MTX monotherapy group, subjects who achieved DAS28 LDA after Period 1 remained blinded on PBO+MTX for Period 2. […] Genetic data were associated with Week-26 clinical response.
For clinical assessment, the percentage of subjects achieving a 20%, 50%, and 70% improvement from baseline ACR scores was determined after Week 26 using a non-responder imputation approach. DAS28(CRP)^1 scores were evaluated at Week 26. The proportion of subjects achieving LDA (DAS28<3.2) and remission criteria (DAS28<2.6) was determined using a non-responder imputation approach.
For statistical analyses, Allele distribution between treatment groups was evaluated using the chi-square test, or Fisher's exact test in cases where data were sparse. The chi-square test was used to compare the proportion of subject achieving ACR20/50/70 and DAS28 LDA (<3.2) or remission (<2.6) within and between treatment groups.
MTX-naïve patients were randomized 1:1 to ADA (40 mg eow)+MTX (titrated to 20 mg/wk by Week 8) or placebo (PBO)+MTX for the first 26 weeks.
The percentage of subjects achieving a 50% improvement in the ACR score from baseline was determined at Week 26 using a non-responder imputation approach. The percentage of subjects achieving DAS28(CRP) remission (DAS28<2.6) was determined at Week 26 using a non-responder imputation approach.
Allele distribution between treatment groups was evaluated using the chi-square test, or Fisher's exact test in cases where data were sparse. Multivariate logistic regression was used to evaluate the effect of treatment, individual alleles, the interaction between treatment and genetic components, and baseline demographics and disease characteristics on clinical responses at 26 weeks.
MTX-naïve pts ≧18 years old with RA<1 year and active disease (DAS28>3.2, ESR≧28 mm/h or CRP≧1.5 mg/dL), and either >1 erosions, RF+, or anti-CCP+ were randomized to ADA+MTX (N=515) or PBO+MTX (N=517) for 26 wks. This analysis presents clinical outcomes at 26 weeks by HLA-DRB1 SE copy number (0×, 1×, or 2×), IL-4R I50V (AA, AG, or GG), and FcγRIIb I232T (TT, TC, CC) alleles. Non-responder imputation was used to calculate the percent of patients achieving ACR20/50/70 and DAS28 low disease activity (LDA, DAS28<3.2) and remission (DAS28<2.6). Multiple logistic regression was used to assess the influence of potential confounding baseline variables. […]

[1] = HLA-DRB1 SE 0 copies, non-responder imputation

## CN(Cc1cnc2nc(N)nc(N)c2n1)c1ccc(C(=O)N[C@@H](CCC(=O)O)C(=O)O)cc1 [PBO + MTX, methotrexate]
IL-4R AA, HLA-DRB1 SE copy # 0
  ACR50, %: (44%)
  ACR50, n/N: 15/34
IL-4R AA, HLA-DRB1 SE copy # 1
  ACR50, %: (41%)
  ACR50, n/N: 23/56
IL-4R AA, HLA-DRB1 SE copy # 2
  ACR50, %: (30%)
  ACR50, n/N: 7/23
IL-4R AG, HLA-DRB1 SE copy # 0
  ACR50, %: (42%)
  ACR50, n/N: 33/78
IL-4R AG, HLA-DRB1 SE copy # 1
  ACR50, %: (37%)
  ACR50, n/N: 34/92
IL-4R AG, HLA-DRB1 SE copy # 2
  ACR50, %: (38%)
  ACR50, n/N: 12/32
IL-4R GG, HLA-DRB1 SE copy # 0
  ACR50, %: (47%)
  ACR50, n/N: 18/38
IL-4R GG, HLA-DRB1 SE copy # 1
  ACR50, %: (40%)
  ACR50, n/N: 14/35
IL-4R GG, HLA-DRB1 SE copy # 2
  ACR50, %: (50%)
  ACR50, n/N: 1/2
ADA+MTX: FcγRIIb-CC with ACR70 and DAS28 remission
  association of FcγRIIb with 26-week response, multiple logistic regression: failed to show a significant association
IL-4R alone
  association of IL-4R with 26-week response, multiple logistic regression: failed to show a significant association
PBO+MTX: ACR20 and ACR50, ADA+MTX: ACR20/50/70 and DAS28 LDA
  association of SE copy number with 26-week response, multiple logistic regression: significant negative effect
IL-4R AA
  ACR20 Response Rates at Week 26 (title; column head ACR70), % subjects: (13%)
  ACR20 Response Rates at Week 26 (title; column head ACR70), n/N subjects: 17/130
IL-4R AG
  ACR20 Response Rates at Week 26 (title; column head ACR70), % subjects: (19%)
  ACR20 Response Rates at Week 26 (title; column head ACR70), n/N subjects: 42/233
IL-4R GG
  ACR20 Response Rates at Week 26 (title; column head ACR70), % subjects: (18%)
  ACR20 Response Rates at Week 26 (title; column head ACR70), n/N subjects: 16/88
HLA-DRB1 SE 0 copies
  ACR50 response rate, % subjects: (40%)
  ACR50 response, n/N subjects: 66/167
  ACR70 response rate, % subjects: (19%)
  ACR70 response, n/N subjects: 31/157
HLA-DRB1 SE 0 copies, listed as MTX
  ACR50 response rate, % subjects: 40%
[1]
  ACR20 response rate, % subjects: (63%)
  ACR20 response, n/N subjects: 105/167
HLA-DRB1 SE 1 copy
  ACR20 response rate, % subjects: (54%)
  ACR20 response, n/N subjects: 115/215
  ACR50 response rate, % subjects: (33%)
  ACR50 response, n/N subjects: 71/215
  ACR70 response rate, % subjects: (17%)
  ACR70 response, n/N subjects: 36/215
HLA-DRB1 SE 1 copy, listed as MTX
  ACR50 response rate, % subjects: 33%
HLA-DRB1 SE 2 copies
  ACR20 response rate, % subjects: (52%)
